According to ChEMBL document CHEMBL5154763, “Discovery of 3H-pyrrolo[2,3-c]quinolines with activity against Mycobacterium tuberculosis by allosteric inhibition of the glutamate-5-kinase enzyme” (Eur J Med Chem, 2022):
Values after ≈ are worked out from the molar mass of the structure shown. Active and inactive are the calls of the source. The calls are words filed in the database; no cut-off is given here.

What was measured:
[1] = tested on: Mycobacterium tuberculosis; experiment: Antitubercular activity against Mycobacterium tuberculosis H37Rv assessed as inhibition of bacterial growth measured after 8 days by Alamar blue assay; assay type: functional; conditions: 192 h, time 8 day
[2] = target: Acetylcholinesterase (Electrophorus electricus, UniProt O42275); experiment: Inhibition of electric eel AChE using acetylthiocholine iodide as substrate by spectrophotometric analysis
[3] = tested on: Plasmodium falciparum; experiment: Antiplasmodial activity against chloroquine-resistant Plasmodium falciparum Dd2; assay type: functional, organism-based
[4] = tested on: Plasmodium falciparum; experiment: Antiplasmodial activity against chloroquine-sensitive Plasmodium falciparum 3D7; assay type: functional, organism-based
[5] = tested on: Mycobacterium tuberculosis; experiment: Antitubercular activity against Mycobacterium tuberculosis H37Rv assessed as inhibition of bacterial growth; assay type: functional
[6] = Cytotoxicity against human HepG2 cells assessed as inhibition of cell growth at 5 uM measured after 48 hrs by MTT assay relative to control; assay type: toxicity, cell-based
[7] = Cytotoxicity against human HepG2 cells assessed as inhibition of cell growth at 10 uM measured after 48 hrs by MTT assay relative to control; assay type: toxicity, cell-based
[8] = Cytotoxicity against human HepG2 cells assessed as inhibition of cell growth at 20 uM measured after 48 hrs by MTT assay relative to control; assay type: toxicity, cell-based
[9] = target: T1, Glutamate 5-kinase (Escherichia coli) (UniProt P0A7B5); experiment: Allosteric inhibition of Escherichia coli G5K assessed as decrease in apparent Vmax for ATP using L-Glu and ATP as substate at 120 uM by NADH-coupled assay; conditions: filed as negative allosteric modulator
T1 sequence (whole entry): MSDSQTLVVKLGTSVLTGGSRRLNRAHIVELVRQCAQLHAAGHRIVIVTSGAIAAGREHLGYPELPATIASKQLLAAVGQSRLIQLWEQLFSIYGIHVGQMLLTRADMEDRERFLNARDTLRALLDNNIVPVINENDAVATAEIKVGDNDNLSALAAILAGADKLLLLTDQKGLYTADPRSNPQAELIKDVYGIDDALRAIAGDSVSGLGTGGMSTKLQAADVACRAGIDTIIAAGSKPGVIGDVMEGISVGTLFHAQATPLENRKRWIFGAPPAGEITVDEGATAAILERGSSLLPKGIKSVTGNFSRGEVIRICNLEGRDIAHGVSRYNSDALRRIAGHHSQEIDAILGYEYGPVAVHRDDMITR

[10] = target: T1, Glutamate 5-kinase (Escherichia coli); experiment: Allosteric inhibition of Escherichia coli G5K using 10 mM L-Glu and 10 mM ATP as substate by NADH-coupled assay; conditions: filed as negative allosteric modulator
[11] = target: T1, Glutamate 5-kinase (Escherichia coli); experiment: Allosteric inhibition of Escherichia coli G5K using 150 mM L-Glu and 10 mM ATP as substate by NADH-coupled assay relative to control; conditions: filed as negative allosteric modulator
[12] = target: T1, Glutamate 5-kinase (Escherichia coli); experiment: Allosteric inhibition of Escherichia coli G5K assessed as increase in apparent Km for ATP using L-Glu and ATP as substate at 120 uM by NADH-coupled assay; conditions: filed as negative allosteric modulator
[13] = target: T1, Glutamate 5-kinase (Escherichia coli); experiment: Allosteric inhibition of Escherichia coli G5K assessed as enzyme residual activity using 150 mM L-Glu and 10 mM ATP as substate by NADH-coupled assay relative to control
[14] = target: T1, Glutamate 5-kinase (Escherichia coli); experiment: Allosteric inhibition of Escherichia coli G5K assessed as enzyme residual activity using 150 mM L-Glu and 2.2 to 8.4 mM ATP as substate by NADH-coupled assay relative to control

Sequence of Acetylcholinesterase (O42275 whole entry): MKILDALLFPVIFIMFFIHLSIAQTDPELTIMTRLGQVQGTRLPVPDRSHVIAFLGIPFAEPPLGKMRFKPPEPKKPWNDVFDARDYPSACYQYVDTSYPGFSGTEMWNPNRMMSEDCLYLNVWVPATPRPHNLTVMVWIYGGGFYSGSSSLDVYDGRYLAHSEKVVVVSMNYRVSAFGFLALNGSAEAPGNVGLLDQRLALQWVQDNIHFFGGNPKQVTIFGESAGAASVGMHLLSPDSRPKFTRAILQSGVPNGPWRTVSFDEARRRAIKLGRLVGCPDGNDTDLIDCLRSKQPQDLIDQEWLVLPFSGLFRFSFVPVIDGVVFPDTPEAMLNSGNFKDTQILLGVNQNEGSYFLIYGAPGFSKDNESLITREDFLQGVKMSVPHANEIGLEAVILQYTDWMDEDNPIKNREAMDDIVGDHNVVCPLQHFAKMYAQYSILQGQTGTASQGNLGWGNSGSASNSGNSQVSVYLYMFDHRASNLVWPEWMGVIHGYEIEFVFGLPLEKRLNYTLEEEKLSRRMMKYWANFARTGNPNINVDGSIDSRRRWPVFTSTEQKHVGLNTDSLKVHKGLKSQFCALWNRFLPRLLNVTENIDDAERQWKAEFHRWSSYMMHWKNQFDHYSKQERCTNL

Compound | MIC [1] | further results
COc1ccc2c(c1)nc(CCc1ccccc1)c1c2ccn1C | 7.9 µM (≈ 2.5 µg/mL) | –
c1ccc2c(c1)nc(C1CC1)c1[nH]ccc12 | 24 µM (≈ 5 µg/mL) | –
c1ccc2c(c1)nc(-c1c[nH]c3ccccc13)c1[nH]ccc12 [MARINOQUINOLINE E] | – | IC50 [2]: 3.6 µM
Nc1ncnc2c1ncn2Cc1nc2ccccc2c2cc[nH]c12 | – | IC50 [3]: 1.65 µM; IC50 [4]: 1.47 µM
Clc1ccc(-c2nc3cc(Cl)ccc3c3cc[nH]c23)cc1 | 16 µM (≈ 5.01 µg/mL) | –
Clc1ccc(-c2nc3ccccc3c3c(Cl)c[nH]c23)cc1 | 16 µM (≈ 5.01 µg/mL) | –
CC(C)(C)OC(=O)Nc1ccc(-c2nc3ccccc3c3[nH]c4ccccc4c23)cc1 | – | MIC [5]: 6.1 µM (≈ 2.5 µg/mL)
Cc1ccc2c(c1)nc(-c1ccc(Cl)cc1)c1[nH]ccc12 | 8.5 µM (≈ 2.49 µg/mL) | –
CCCCCCCCc1nc2cc(OC)ccc2c2cc[nH]c12 | 16.1 µM (≈ 5 µg/mL) | –
CCCCCCCCc1nc2ccccc2c2cc[nH]c12 | 17.8 µM (≈ 4.99 µg/mL) | –
Clc1ccc(-c2nc3ccccc3c3cc[nH]c23)cc1 | 17.9 µM (≈ 4.99 µg/mL) | –
c1ccc(-c2ccc(-c3nc4ccccc4c4cc[nH]c34)cc2)cc1 | 31.2 µM (≈ 10 µg/mL) | –
Cc1ccc2c(c1)nc(-c1ccc(Cl)cc1)c1c2ccn1C | 16.3 µM (≈ 5 µg/mL) | –
CCCCCCCCc1nc2cc(C)ccc2c2cc[nH]c12 | 17 µM (≈ 5.01 µg/mL) | –
Fc1ccc2c(c1)nc(-c1ccc(Cl)cc1)c1[nH]ccc12 | 4.2 µM (≈ 1.25 µg/mL) | inhibition at 48 h, 5 µM [6]: 1%; inhibition at 48 h, 10 µM [7]: 1%; inhibition at 48 h, 20 µM [8]: 2%; inhibition [9]: Active; I0.5 [10]: 33 µM; inhibition [11]: 40%
c1ccc2c(c1)nc(-c1ccc(N3CCCC3)cc1)c1c3ncccc3[nH]c21 | – | MIC [5]: 13.7 µM (≈ 4.99 µg/mL)
CC(C)Cc1nc2ccccc2c2cc[nH]c12 | 22.6 µM (≈ 5.07 µg/mL) | IC50 [2]: 3.6 µM
Cn1ccc2c3ccccc3nc(-c3ccc(Cl)cc3)c21 | 17.1 µM (≈ 5.01 µg/mL) | –

Compound | MIC [1] | further results
COc1c(N2C[C@@H]3CCCN[C@@H]3C2)c(F)cc2c(=O)c(C(=O)O)cn(C3CC3)c12 [MOXIFLOXACIN] | 0.15 µM (≈ 0.0602 µg/mL) | –
Fc1ccc2c(c1)nc(CCc1ccccc1)c1[nH]ccc12 | 34.4 µM (≈ 9.99 µg/mL) | –
CCCCCCCCc1nc2cc(F)ccc2c2cc[nH]c12 | 16.8 µM (≈ 5.01 µg/mL) | –
FC(F)(F)c1ccc2c(c1)nc(-c1ccc(Cl)cc1)c1[nH]ccc12 | 14.4 µM (≈ 4.99 µg/mL) | –
Fc1ccc2c(c1)nc(-c1ccc(Cl)cc1)c1c2ccn1CC1CC1 | 14.2 µM (≈ 4.98 µg/mL) | –
c1ccc(Cc2nc3ccccc3c3cc[nH]c23)cc1 [MARINOQUINOLINE C] | – | IC50 [2]: 3.6 µM
O=C(O)[C@@H]1CCCN1 | – | I0.5 [10]: 2.5 µM; inhibition [11]: 100%
Oc1ccc(Cc2nc3ccccc3c3cc[nH]c23)cc1 [MARINOQUINOLINE D] | – | IC50 [2]: 3.6 µM
COc1ccc2c(c1)nc(CCc1ccccc1)c1[nH]ccc12 | 4.1 µM (≈ 1.24 µg/mL) | inhibition at 48 h, 5 µM [6]: 1%; inhibition at 48 h, 10 µM [7]: 3%; inhibition at 48 h, 20 µM [8]: 17%; inhibition [12]: Active; Activity [13]: 68%; I0.5 [10]: 22.1 µM; Activity [14]: 66%
COc1ccc2c(c1)nc(Cc1ccccc1)c1[nH]ccc12 | 34.7 µM (≈ 10 µg/mL) | –
Clc1ccc(-c2nc3ccccc3c3c(Br)c[nH]c23)cc1 | 14 µM (≈ 5.01 µg/mL) | –
Cc1nc2ccccc2c2cc[nH]c12 [MARINOQUINOLINE A] | – | IC50 [2]: 3.6 µM
COC(=O)c1ccc2c(c1)nc(-c1ccc(Cl)cc1)c1[nH]ccc12 | > 500 µM | –
O=C(c1c[nH]c2ccccc12)c1nc2ccccc2c2cc[nH]c12 [MARINOQUINOLINE F] | – | IC50 [2]: 3.6 µM
Fc1cccc(-c2c[nH]c3c(-c4ccc(Cl)cc4)nc4ccccc4c23)c1 | 26.8 µM (≈ 9.99 µg/mL) | –
Cc1ccc2c(c1)nc(C1CC1)c1[nH]ccc12 | 45 µM (≈ 10 µg/mL) | –
c1ccc(CCc2nc3ccccc3c3cc[nH]c23)cc1 | 36.7 µM (≈ 10 µg/mL) | –
